ChEMBL document CHEMBL4808169, “Discovery of Potent and Fast-Acting Antimalarial Bis-1,2,4-triazines” (J Med Chem, 2021)

Assays:
[1] = Cmax in Swiss mouse plasma at 27 mg/kg, po measured up to 24 hrs by LC-MS analysis; format: ADME, organism-based; set-up: route oral, dose 27 mg/kg, time <=24
[2] = Metabolic stability of compound in Sprague-Dawley rat blood assessed as parent compound loss measured over 4 hrs by LC-MS analysis; format: ADME, tissue-based; details: whole blood, read-out: Drug degradation
[3] = Drug metabolism in mouse hepatocytes assessed as N-methyl-2-(3'-propoxy-5,5'-bi(1,2,4-triazin)-3-yloxy)ethanamine formation by LC-MS/MS(CID) analysis; format: ADME, cell-based, Hepatocyte
Cytochrome P450 1A2 = target: T1, Cytochrome P450 1A2 (Homo sapiens, UniProt P05177); assay: Inhibition of CYP1A2 in human liver microsomes assessed as reduction in […] activity by . high-pressure liquid chromatography-tandem mass spectrometry; format: ADME
T1 sequence (P05177 whole entry): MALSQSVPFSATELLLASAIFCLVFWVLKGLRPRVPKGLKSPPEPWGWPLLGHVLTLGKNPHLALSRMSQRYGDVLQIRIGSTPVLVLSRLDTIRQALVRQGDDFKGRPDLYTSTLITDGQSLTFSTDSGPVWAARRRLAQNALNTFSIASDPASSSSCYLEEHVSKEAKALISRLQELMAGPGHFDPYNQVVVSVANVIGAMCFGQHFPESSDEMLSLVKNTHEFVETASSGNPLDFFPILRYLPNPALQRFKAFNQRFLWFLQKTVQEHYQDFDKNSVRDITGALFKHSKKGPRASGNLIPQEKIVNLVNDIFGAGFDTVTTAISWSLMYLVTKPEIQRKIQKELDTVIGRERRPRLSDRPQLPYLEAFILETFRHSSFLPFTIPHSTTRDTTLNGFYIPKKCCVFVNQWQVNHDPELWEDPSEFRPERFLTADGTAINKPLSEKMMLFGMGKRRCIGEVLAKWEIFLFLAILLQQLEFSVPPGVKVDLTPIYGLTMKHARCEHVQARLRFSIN

[4] = Drug metabolism in mouse hepatocytes assessed as glucuronides/sulfates metabolite formation by LC-MS/MS(CID) analysis; format: ADME, cell-based, Hepatocyte
[5] = Drug metabolism in mouse liver microsomes assessed as oxygenated metabolite N-methyl-2-(3'-propoxy-5,5'-bi(1,2,4-triazin)-3-yloxy)ethanamine oxide formation by LC-MS/MS(CID) analysis; format: ADME, Microsome
[6] = Drug metabolism in rat hepatocytes assessed as oxygenated metabolite N-methyl-2-(3'-propoxy-5,5'-bi(1,2,4-triazin)-3-yloxy)ethanamine oxide formation by LC-MS/MS(CID) analysis; format: ADME, cell-based, Hepatocyte
[7] = Toxicity in Swiss mouse assessed as loss of mobility at 32 mg/kg/day administered for 4 days; format: organism-based; details: in vivo, 96 h, time 4 day
Plasmodium falciparum [8] = assay: Antiplasmodial activity against Plasmodium falciparum K1 by 3H-incorporation growth inhibition assay; format: functional, organism-based; details: pooled result: one value given for 11 cell lines, strains, targets or settings
[9] = Kinetic solubility of compound at pH 2 by nephelometry; format: physicochemical; details: buffer, read-out: Kinetic_solubility
[10] = Drug metabolism in human hepatocytes assessed as 3'-propoxy-5,5'-bi(1,2,4-triazin)-3-ol formation by LC-MS/MS(CID) analysis; format: ADME, cell-based, Hepatocyte
[11] = Kinetic solubility of compound at pH 6.5 by nephelometry; format: physicochemical; details: buffer, read-out: Kinetic_solubility
[12] = Drug metabolism in human hepatocytes assessed as N-methyl-2-(3'-propoxy-5,5'-bi(1,2,4-triazin)-3-yloxy)ethanamine formation by LC-MS/MS(CID) analysis; format: ADME, cell-based, Hepatocyte
[13] = Ratio of drug level in blood to plasma in Sprague-Dawley rat at 3 mg/kg, iv administered as infusion for 10 mins measured after 1 hr by LC-MS analysis; format: ADME, organism-based; details: whole blood and plasma
[14] = Half life in human liver microsomes in presence of NADPH by UPLC-MS analysis; format: ADME, Microsome
[15] = Drug metabolism in rat liver microsomes assessed as 3'-propoxy-5,5'-bi(1,2,4-triazin)-3-ol formation by LC-MS/MS(CID) analysis; format: ADME, Microsome
[16] = Drug metabolism in human liver microsomes assessed as formation of cleavage product M-69 by LC-MS/MS(CID) analysis; format: ADME, Microsome
[17] = Drug metabolism in mouse liver microsomes assessed as N-methyl-2-(3'-propoxy-5,5'-bi(1,2,4-triazin)-3-yloxy)ethanamine formation by LC-MS/MS(CID) analysis; format: ADME, Microsome
[18] = Drug metabolism in human liver microsomes assessed as N-methyl-2-(3'-propoxy-5,5'-bi(1,2,4-triazin)-3-yloxy)ethanamine formation by LC-MS/MS(CID) analysis; format: ADME, Microsome
[19] = Drug metabolism in mouse liver microsomes assessed as formation of cleavage product M-69 by LC-MS/MS(CID) analysis; format: ADME, Microsome
[20] = Drug metabolism in human liver microsomes assessed as formation of cleavage product M-69 in presence of NADPH by LC-MS/MS(CID) analysis; format: ADME, Microsome
[21] = Drug concentration in blood of NOD-SCID 1L2Rgamma mouse infected with Plasmodium falciparum 3D70087/N9 at 50 mg/kg, po measured at 24 hrs by LC-MS/MS analysis; format: ADME, organism-based; details: in vivo
[22] = Apparent permeability across apical to basolateral side in human Caco2 cells measured over 120 mins by LC-MS analysis; format: ADME, cell-based; details: Caco-2
Plasmodium falciparum [23] = assay: Antimalarial activity against Plasmodium falciparum 3D7 infected in human red blood cells at 40 uM after 72 hrs by DAPI-staining based assay relative to control; format: functional
[24] = Apparent half life in Swiss mouse at 2.7 mg/kg, iv measured up to 24 hrs by LC-MS analysis; format: ADME, organism-based; details: in vivo, read-out: t1/2(app) (converted)
[25] = Drug metabolism in Sprague-Dawley rat urine assessed as M-32 metabolite formation at 10 mg/kg, po by high-resolution mass spectrometry; format: ADME, organism-based; details: in vivo
[26] = Drug metabolism in Sprague-Dawley rat urine assessed as oxygenated metabolite M+16(1) formation at 3 mg/kg, iv by high-resolution mass spectrometry; format: ADME, organism-based; details: in vivo
[27] = Drug metabolism in mouse liver microsomes assessed as 3'-propoxy-5,5'-bi(1,2,4-triazin)-3-ol formation by LC-MS/MS(CID) analysis; format: ADME, Microsome
[28] = Oral availability in Sprague-Dawley rat at 10 mg/kg measured up to 24 hrs by LC-MS analysis; format: ADME, organism-based; details: in vivo
[29] = Efflux ratio of apparent permeability in human Caco2 cells measured over 120 mins by LC-MS analysis; format: ADME, cell-based; details: Caco-2
[30] = Drug metabolism in Sprague-Dawley rat feces assessed as N-methyl-2-(3'-propoxy-5,5'-bi(1,2,4-triazin)-3-yloxy)ethanamine formation at 3 mg/kg, iv by high-resolution mass spectrometry; format: ADME, organism-based; details: in vivo
Cytochrome P450 2C19 = Cytochrome P450 2C19 (Homo sapiens, UniProt P33261); assay: Inhibition of CYP2C19 in human liver microsomes assessed as reduction in […] activity by . high-pressure liquid chromatography-tandem mass spectrometry; format: ADME
Sequence of Cytochrome P450 2C19 (P33261 whole entry): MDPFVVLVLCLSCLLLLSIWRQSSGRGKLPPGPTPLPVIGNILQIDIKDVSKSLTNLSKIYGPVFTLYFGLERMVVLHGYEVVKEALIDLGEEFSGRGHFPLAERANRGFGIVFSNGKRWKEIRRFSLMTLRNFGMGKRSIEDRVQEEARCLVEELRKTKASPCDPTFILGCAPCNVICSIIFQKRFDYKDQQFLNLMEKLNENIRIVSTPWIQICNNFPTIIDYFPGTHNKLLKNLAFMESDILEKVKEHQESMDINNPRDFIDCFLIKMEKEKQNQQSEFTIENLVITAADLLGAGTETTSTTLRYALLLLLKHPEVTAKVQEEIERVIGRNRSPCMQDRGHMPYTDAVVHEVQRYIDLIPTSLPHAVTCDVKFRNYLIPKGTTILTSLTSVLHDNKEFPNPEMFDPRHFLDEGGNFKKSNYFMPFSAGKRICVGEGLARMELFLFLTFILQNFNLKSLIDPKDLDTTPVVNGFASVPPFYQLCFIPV

HEK293 = assay: Cytotoxicity against HEK293 cells incubated for 24 hrs by MTT assay; format: cell-based; details: Homo sapiens, HEK293, 24 h
[31] = Intrinsic clearance in human liver microsomes assessed per mg of protein in presence of NADPH by UPLC-MS analysis; format: ADME, Microsome; details: read-out: CLH

Question: With `CCCOc1nncc(-c2cnnc(OCCN(C)C)n2)n1` as the molecule, how does the Cmax [1] read?
Answer: 0.082 µM

Question: And the metabolised at 4 h [2]?
Answer: 15%

Question: What about the Drug metabolism [3] of the same molecule?
Answer: Metabolite_Detected

Question: What about the IC50 (Cytochrome P450 1A2) of the same molecule?
Answer: > 20 µM

Question: What about the Drug metabolism [4] of the same molecule?
Answer: Metabolite_Notdetected

Question: What about the Drug metabolism [5] of the same molecule?
Answer: Metabolite_Detected

Question: What about the Drug metabolism [6] of the same molecule?
Answer: Metabolite_Detected

Question: And the Activity [7]?
Answer: Non-Toxic

Question: What about the IC50 (Plasmodium falciparum [8]) of the same molecule?
Answer: 0.023 µM

Question: And the solubility kinetic [9]?
Answer: > 0.1 mg/mL

Question: What about the Drug metabolism [10] of the same molecule?
Answer: Metabolite_Notdetected

Question: What about the solubility kinetic [11] of the same molecule?
Answer: > 0.1 mg/mL

Question: And the Drug metabolism [12]?
Answer: Metabolite_Notdetected

Question: What about the blood plasma ratio at 10 min [13] of the same molecule?
Answer: 1.3

Question: What about the half-life [14] of the same molecule?
Answer: 3.82 h

Question: What about the Drug metabolism [15] of the same molecule?
Answer: Metabolite_Notdetected

Question: What about the Drug metabolism [16] of the same molecule?
Answer: Metabolite_Detected

Question: And the Drug metabolism [17]?
Answer: Metabolite_Detected

Question: What about the Drug metabolism [18] of the same molecule?
Answer: Metabolite_Notdetected

Question: And the Drug metabolism [19]?
Answer: Metabolite_Detected

Question: And the Drug metabolism [20]?
Answer: Metabolite_Detected

Question: What about the Drug uptake [21] of the same molecule?
Answer: < 1e-05 mg/mL

Question: And the Papp A→B at 2 h [22]?
Answer: 400 nm/s

Question: And the Activity (Plasmodium falciparum [23])?
Answer: 100%

Question: What about the half-life [24] of the same molecule?
Answer: 0.2 h

Question: And the Drug metabolism [25]?
Answer: Metabolite_Detected

Question: What about the Drug metabolism [26] of the same molecule?
Answer: Metabolite_Detected

Question: What about the Drug metabolism [27] of the same molecule?
Answer: Metabolite_Detected

Question: And the bioavailability [28]?
Answer: 7.49%

Question: And the efflux ratio at 2 h [29]?
Answer: 1.1

Question: What about the Drug metabolism [30] of the same molecule?
Answer: Metabolite_Detected

Question: And the IC50 (Cytochrome P450 2C19)?
Answer: > 20 µM

Question: And the EC50 (HEK293)?
Answer: 36 µM

Question: And the microsomal CLint [31]?
Answer: 8 µL/min/mg
